In patent US11352350B2, “IRAK degraders and uses thereof” (Kymera Therapeutics, Inc., priority 2018, dated 2022) one finds DC50 and IC50 data, which are given here for 25 compounds.

Test [1] addresses IRAK4 (Homo sapiens (Human), UniProt Q9NWZ3). Nature of the test: IRAK4 MSD degradation in OCI-LY10. Format: cell-based. The note with it: MSD. The gist of the method:
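Remaining IRAK4 quantified by electrochemiluminescent MSD sandwich assay with two anti-IRAK4 antibodies. Compounds were dosed as 8 concentrations in 1:3 steps from a 1 to 10 μM final top on OCI-LY10 cells, incubated 4 to 24 h at 37° C. under 5% CO2. DC50 fitted with a three-parameter logistic curve.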

For test [2], the system named is OCI-LY10. Nature of the test: CTG Cell Viability Assay - OCI-LY10. Format: cell-based, human. The following applies: OCI-LY10, 4 days, read-out: CTG Cell Viability Assay - OCI-LY10: Average external-IC50. As to the method: Compound-mediated viability effect on OCI-LY10 or TMD8 was quantitatively determined using the CellTiter-Glo® Luminescent Cell Viability Assay kit from Promega (Catalog number G7570) following manufacturer's recommended procedures. […] Compounds were then added to the assay plate with final top concentration of 10 μM and 1:3 dilution series with total of 9 doses. The final DMSO concentration was normalized to 0.2%. The assay plates were incubated at 37° C. for 4 days under 5% CO2. Then the assay plate was equilibrated at room temperature for 10 minutes. […] The data was then analyzed by software Prism 7.0 from GraphPad and the dose response curves were fit using a three-parameter logistic equation to calculate IC50.

The mark [3] stands for this setting: OCI-LY10, 4 hrs, read-out: IRAK4 MSD degradation in OCI-LY10 at 4 hrs: Average external-Abs DC50.
[4] abbreviates: OCI-LY10, 24 hrs, read-out: IRAK4 MSD degradation in OCI-LY10 at 24 hrs: Average external-Abs DC50.

The structures appear in SMILES notation. Read-outs that look alike come from different tables or passages of the source.

Sequence of IRAK4 (Q9NWZ3 whole entry): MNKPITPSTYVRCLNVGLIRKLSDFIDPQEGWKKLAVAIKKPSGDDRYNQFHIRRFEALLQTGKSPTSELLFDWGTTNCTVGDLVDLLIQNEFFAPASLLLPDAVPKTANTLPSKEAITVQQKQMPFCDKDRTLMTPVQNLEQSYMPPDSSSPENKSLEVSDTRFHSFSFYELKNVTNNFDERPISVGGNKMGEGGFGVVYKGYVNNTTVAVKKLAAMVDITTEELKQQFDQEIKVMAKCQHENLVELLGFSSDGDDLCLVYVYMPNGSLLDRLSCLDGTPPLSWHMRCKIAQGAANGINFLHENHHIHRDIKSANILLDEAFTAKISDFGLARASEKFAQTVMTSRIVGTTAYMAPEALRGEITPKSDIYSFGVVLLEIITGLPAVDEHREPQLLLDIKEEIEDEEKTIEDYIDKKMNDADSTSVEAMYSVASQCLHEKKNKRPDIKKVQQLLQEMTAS

One may read the DC50 as the concentration giving 50% degradation. For orientation: IC50 means the concentration that gives 50% inhibition. In the case of `COc1cc(C(=O)NCCCCN(C)C[C@H]2CC[C@H](n3cc(NC(=O)c4coc(-c5ccnc(NCC6CC6)c5)n4)c(C(F)F)n3)CC2)ccc1NC(=O)[C@@H]1N[C@@H](CC(C)(C)C)[C@](C#N)(c2ccc(Cl)cc2F)[C@H]1c1cccc(Cl)c1F` [I-142], the DC50 in test [1] (setting [3]) and in test [1] (setting [4]) was over 1000 nM in each case. In addition, in test [2], the concentration for half-maximal inhibition (IC50) is over 1000 nM.
For the compound `COc1cc(C(=O)NCCCCCCN(C)C(=O)[C@H]2CC[C@H](n3cc(NC(=O)c4coc(-c5ccnc(NCC6CC6)c5)n4)c(C(F)F)n3)CC2)ccc1NC(=O)[C@@H]1N[C@@H](CC(C)(C)C)[C@](C#N)(c2ccc(Cl)cc2F)[C@H]1c1cccc(Cl)c1F` [I-143], the DC50 in test [1] (setting [3]) and in test [1] (setting [4]) was over 1000 nM in each case. For the same compound, the IC50 in test [2] is over 1000 nM.
Turning to `COc1cc(C(=O)NCCOCCOCCN(C)C[C@H]2CC[C@H](n3cc(NC(=O)c4coc(-c5ccnc(NCC6CC6)c5)n4)c(C(F)F)n3)CC2)ccc1NC(=O)[C@@H]1N[C@@H](CC(C)(C)C)[C@](C#N)(c2ccc(Cl)cc2F)[C@H]1c1cccc(Cl)c1F` [I-145], the DC50 in test [1] (setting [3]) and in test [1] (setting [4]) was over 1000 nM each time. Further, in test [2], the IC50 is over 1000 nM.
With `CC(C)[C@@H](CS(=O)(=O)C(C)C)N1C(=O)[C@@](C)(CC(=O)N2CCC(CCN(C)C[C@H]3CC[C@H](n4cc(NC(=O)c5coc(-c6ccnc(NCC7CC7)c6)n5)c(C(F)F)n4)CC3)CC2)C[C@H](c2cccc(Cl)c2)[C@H]1c1ccc(Cl)cc1` [I-147], the DC50 in test [1] (setting [3]) and in test [1] (setting [4]) was over 1000 nM in each case. Besides, the IC50 in test [2] (Homo sapiens, OCI-Ly10, 96 h) was over 1000 nM.
Regarding `Cn1c(=O)n(C2CCC(=O)NC2=O)c2ccc(CN3CCC(CC(=O)N4CCC(n5cc(NC(=O)c6coc(-c7ccnc(NCC8CC8)c7)n6)c(C(F)F)n5)CC4)CC3)cc21` (stereo not drawn) [I-148], in test [1] (setting [3]), the DC50 was 100 to 1000 nM. In addition, the 50% inhibitory concentration (IC50) in test [2] (Homo sapiens, OCI-Ly10, 96 h) was in the range of 100 to 500 nM.
For `Cn1c(=O)n(C2CCC(=O)NC2=O)c2cccc(CCCOC3CCN(C(=O)[C@H]4CC[C@H](n5cc(NC(=O)c6cnn7ccc(N8CCOCC8)nc67)c(C(F)F)n5)CC4)CC3)c21` (stereo partly drawn) [I-149], in that order: under 10 nM and over 1000 nM.
In the case of `Cn1c(=O)n(C2CCC(=O)NC2=O)c2cccc(CN3CCC(CN4CCC(n5cc(NC(=O)c6cnn7ccc(N[C@@H]8CCCC[C@@H]8O)nc67)c(C(F)F)n5)CC4)CC3)c21` (stereo partly drawn) [I-150], the DC50 in test [1] (setting [3]) lay within 10 to 100 nM. The IC50 in test [2] (Homo sapiens, OCI-Ly10, 96 h) was under 50 nM.
On to `O=C1CCC(n2c3cccc(CCCOC4CCN(C[C@H]5CC[C@H](n6cc(NC(=O)c7cnn8ccc(N9CCC(O)CC9)nc78)c(C(F)F)n6)CC5)CC4)c3c3cccnc32)C(=O)N1` (stereo partly drawn) [I-151], for which, in test [1] (setting [3]), the half-maximal degradation concentration (DC50) lay in the range of 10 to 100 nM. For the same compound, in test [2] (Homo sapiens, OCI-Ly10, 96 h), the IC50 was over 1000 nM.
Consider `O=C1CCC(N2C[C@@H](c3ccc(C#CCCOC4CCN(C[C@H]5CC[C@H](n6cc(NC(=O)c7cnn8ccc(N9CCC(O)CC9)nc78)c(C(F)F)n6)CC5)CC4)cc3)OC2=O)C(=O)N1` (stereo partly drawn) [I-152], for which the DC50 in test [1] (setting [3]) was 10 to 100 nM. In test [2] (Homo sapiens, OCI-Ly10, 96 h), the IC50 is over 1000 nM.
Regarding `Cn1c(=O)n(C2CCC(=O)NC2=O)c2cccc(CCCOC3CCN(C[C@H]4CC[C@H](n5cc(NC(=O)c6cnn7ccc(N[C@@H]8CCCC[C@@H]8O)nc67)c(C(F)(F)F)n5)CC4)CC3)c21` (stereo partly drawn) [I-153], in test [1] (setting [3]), the 50% degradation concentration (DC50) lay in the range of 10 to 100 nM. In addition, the IC50 in test [2] (Homo sapiens, OCI-Ly10, 96 h) is over 1000 nM.
For `CN(CCC1CCN(Cc2cccc3c2n(C)c(=O)n3C2CCC(=O)NC2=O)CC1)C[C@H]1CC[C@H](n2cc(NC(=O)c3cnn4ccc(N5C[C@H](N)CC(F)(F)C5)nc34)c(C(F)F)n2)CC1` (stereo partly drawn) [I-155], the DC50 in test [1] (setting [3]) fell in the range of 10 to 100 nM. Besides, the IC50 in test [2] (Homo sapiens, OCI-Ly10, 96 h) is over 1000 nM.
In the case of `Cn1c(=O)n(C2CCC(=O)NC2=O)c2cccc(CCCOC3CCN(C[C@H]4CC[C@H](n5cc(NC(=O)c6cnn7ccc(NCC8CC8)nc67)c(C(F)F)n5)CC4)CC3)c21` (stereo partly drawn) [I-156], in test [1] (setting [3]), the DC50 lay within 10 to 100 nM. The IC50 in test [2] (Homo sapiens, OCI-Ly10, 96 h) was over 1000 nM.
On the same counts, the results for `Cn1c(=O)n(C2CCC(=O)NC2=O)c2cccc(CCCOC3CCN(C[C@H]4CC[C@H](n5cc(NC(=O)c6cnn7ccc(N8CCC(O)CC8)nc67)c(C(F)F)n5)CC4)CC3)c21` (stereo partly drawn) [I-157] are under 10 nM and over 1000 nM.
With `Cn1c(=O)n(C2CCC(=O)NC2=O)c2cccc(CCCOCCC(=O)N3CCN([C@H]4CC[C@H](Nc5ncnc6ccc(C#N)cc56)CC4)CC3)c21` (stereo partly drawn) [I-159], the 50% degradation concentration (DC50) in test [1] (setting [3]) and in test [1] (setting [4]) was over 1000 nM throughout. Also, in test [2] (Homo sapiens, OCI-Ly10, 96 h), the IC50 is over 1000 nM.
With `Cc1ccc(-n2nc(C3CCN(C(=O)CCCCOCCCc4cccc5c4n(C)c(=O)n5C4CCC(=O)NC4=O)CC3)cc2NC(=O)c2cnn3cccnc23)nc1` (stereo not drawn) [I-160], the DC50 in test [1] (setting [3]) and in test [1] (setting [4]) was over 1000 nM throughout. For the same compound, the IC50 in test [2] (Homo sapiens, OCI-Ly10, 96 h) is over 1000 nM.
On to `CN[C@@H](C)C(=O)N[C@H](C(=O)N1Cc2cc(OCCOCCOCCNC[C@H]3CC[C@H](n4cc(NC(=O)c5coc(-c6ccnc(NCC7CC7)c6)n5)c(C(F)F)n4)CC3)ccc2C[C@H]1C(=O)N[C@@H]1CCCc2ccccc21)C(C)(C)C` [I-161], for which the DC50 in test [1] (setting [3]) and in test [1] (setting [4]) was over 1000 nM throughout. Also, in test [2] (Homo sapiens, OCI-Ly10, 96 h), the concentration for half-maximal inhibition (IC50) is over 1000 nM.
In the case of `Cn1c(=O)n(C2CCC(=O)NC2=O)c2ccc(CCCOC3CCN(C[C@H]4CC[C@H](n5cc(NC(=O)c6cnn7ccc(N8CCNCC8)nc67)c(C(F)F)n5)CC4)CC3)cc21` (stereo partly drawn) [I-162], in test [1] (setting [3]), the DC50 is under 10 nM. In addition, the IC50 in test [2] (Homo sapiens, OCI-Ly10, 96 h) was over 1000 nM.
For `Cn1c(=O)n(C2CCC(=O)NC2=O)c2ccc(CCCOCC3CCN(C[C@H]4CC[C@H](n5cc(NC(=O)c6cnn7ccc(N8CCNCC8)nc67)c(C(F)F)n5)CC4)CC3)cc21` (stereo partly drawn) [I-163], in that order: under 10 nM and over 1000 nM.
Take `Cn1c(=O)n(C2CCC(=O)NC2=O)c2cccc(CCCOCC3CCN(C[C@H]4CC[C@H](n5cc(NC(=O)c6cnn7ccc(N8CCNCC8)nc67)c(C(F)F)n5)CC4)CC3)c21` (stereo partly drawn) [I-164]: the 50% degradation concentration (DC50) in test [1] (setting [3]) is under 10 nM. Further, the IC50 in test [2] (Homo sapiens, OCI-Ly10, 96 h) was over 1000 nM.
On to `O=C1CCC(n2c(=O)oc3c(CCCOC4CCN(C[C@H]5CC[C@H](n6cc(NC(=O)c7cnn8ccc(N9CCNCC9)nc78)c(C(F)F)n6)CC5)CC4)cccc32)C(=O)N1` (stereo partly drawn) [I-165], for which the DC50 in test [1] (setting [3]) lay within 10 to 100 nM. The IC50 in test [2] (Homo sapiens, OCI-Ly10, 96 h) fell in the range of 500 to 1000 nM.
On the same counts, the results for `O=C1CCC(n2c(=O)oc3cc(CCCOC4CCN(C[C@H]5CC[C@H](n6cc(NC(=O)c7cnn8ccc(N9CCNCC9)nc78)c(C(F)F)n6)CC5)CC4)ccc32)C(=O)N1` (stereo partly drawn) [I-166] are 10 to 100 nM and over 1000 nM.
As for `CN(CCCOCCCc1cccc2c1C(=O)N(C1CCC(=O)NC1=O)C2=O)C[C@H]1CC[C@H](n2cc(NC(=O)c3coc(-c4ccnc(NCC5CC5)c4)n3)c(C(F)F)n2)CC1` (stereo partly drawn) [I-167], in test [1] (setting [3]), the DC50 fell in the range of 100 to 1000 nM. In test [2] (Homo sapiens, OCI-Ly10, 96 h), the IC50 lay within 100 to 500 nM.
Turning to `CN(C[C@H]1CC[C@H](n2cc(NC(=O)c3coc(-c4ccnc(NCC5CC5)c4)n3)c(C(F)F)n2)CC1)C1CCN(Cc2cccc3c2C(=O)N(C2CCC(=O)NC2=O)C3=O)CC1` (stereo partly drawn) [I-169], the 50% degradation concentration (DC50) in test [1] (setting [3]) is under 10 nM. Also, the IC50 in test [2] (Homo sapiens, OCI-Ly10, 96 h) is over 1000 nM.
As for `O=C1CCC(N2C(=O)c3cccc(NCCCCOC4CCN(C[C@H]5CC[C@H](n6cc(NC(=O)c7coc(-c8ccnc(NCC9CC9)c8)n7)c(C(F)F)n6)CC5)CC4)c3C2=O)C(=O)N1` (stereo partly drawn) [I-170], the DC50 in test [1] (setting [3]) is 10 to 100 nM. The IC50 in test [2] (Homo sapiens, OCI-Ly10, 96 h) is under 50 nM.
As for `O=C1CCC(N2C(=O)c3cccc(CCCOC4CCN(C[C@H]5CC[C@H](n6cc(NC(=O)c7coc(-c8ccnc(NCC9CC9)c8)n7)c(C(F)F)n6)CC5)CC4)c3C2=O)C(=O)N1` (stereo partly drawn) [I-171], the DC50 in test [1] (setting [3]) lay within 10 to 100 nM. Besides, the IC50 in test [2] (Homo sapiens, OCI-Ly10, 96 h) lay in the range of 100 to 500 nM.
